Experimental data published in patent US20250296949A1, “HIGH PURITY NON-ANIMAL DERIVED UDCA” (priority 2021, published 2025).

assay: DVS mass change of crystalline 3,7-DKCA salts; assay type: physicochemical

Structure (SMILES) | DVS mass change 5-95% RH (wt. %)
C[C@H](CCC(=O)O)[C@H]1CC[C@H]2[C@@H]3C(=O)C[C@@H]4CC(=O)CC[C@]4(C)[C@H]3CC[C@]12C.NCCN [Ethylenediamine salt, ethylenediamine salt of 3,7-DKCA] | 19.60
CC(C)(C)N.C[C@H](CCC(=O)O)[C@H]1CC[C@H]2[C@@H]3C(=O)C[C@@H]4CC(=O)CC[C@]4(C)[C@H]3CC[C@]12C [tert-Butylamine salt, tert-butylamine salt of 3,7-DKCA] | 10.89
CC(C)NC(C)C.C[C@H](CCC(=O)O)[C@H]1CC[C@H]2[C@@H]3C(=O)C[C@@H]4CC(=O)CC[C@]4(C)[C@H]3CC[C@]12C [Diisopropylamine salt, diisopropylamine salt of 3,7-DKCA] | 2.53
